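Following 48 hours of exposure in 96-well plates, responses at five concentrations were used to interpolate endpoints linearly. The concentration for 50% growth inhibition is given as GI50. The concentration for full growth arrest is given as TGI.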
How the values were obtained:
Assay in all cases: DTP human tumour cell line panel, 48 h
A549 NSCLC = system: A549 NSCLC
SK-MEL-2 melanoma = system: SK-MEL-2 melanoma
SW-620 colon = system: SW-620 colon
HOP-62 NSCLC = system: HOP-62 NSCLC
HL-60(TB) leukemia = system: HL-60(TB) leukemia
UO-31 renal = system: UO-31 renal
ACHN renal = system: ACHN renal
SNB-75 CNS = system: SNB-75 CNS
UACC-62 melanoma = system: UACC-62 melanoma
LOX IMVI melanoma = system: LOX IMVI melanoma

| Structure (SMILES) | TGI (A549 NSCLC) | TGI (SK-MEL-2 melanoma) | TGI (SW-620 colon) | TGI (HOP-62 NSCLC) | TGI (HL-60(TB) leukemia) | TGI (UO-31 renal) | TGI (ACHN renal) | TGI (SNB-75 CNS) | TGI (UACC-62 melanoma) | TGI (LOX IMVI melanoma) | GI50 (A549 NSCLC) | GI50 (SK-MEL-2 melanoma) | GI50 (SW-620 colon) | GI50 (HOP-62 NSCLC) | GI50 (HL-60(TB) leukemia) | GI50 (UO-31 renal) | GI50 (ACHN renal) | GI50 (SNB-75 CNS) | GI50 (UACC-62 melanoma) | GI50 (LOX IMVI melanoma) |
| --- | --- | --- | --- | --- | --- | --- | --- | --- | --- | --- | --- | --- | --- | --- | --- | --- | --- | --- | --- | --- |
| CN(C)C(=S)SN(C)C(=O)Nc1ccccc1 | > 100 µM | > 100 µM | 42.6 µM | > 100 µM | > 71.7 µM | > 94.7 µM | > 96.4 µM | > 92.1 µM | 19.1 µM | 44.7 µM |  |  |  |  |  |  |  |  |  |  |
| CCC(C)(O)c1cn(-c2cccc(S(=O)(=O)O)c2)nn1 (stereo not given) | > 100 µM | > 100 µM | > 100 µM | > 100 µM | > 100 µM | > 100 µM | > 100 µM | > 100 µM | > 100 µM | > 100 µM |  |  |  |  |  |  |  |  |  |  |
| C=C1C(=O)O[C@H]2[C@H]1CC/C(COC(=O)/C=C\C(=O)NCc1ccc(Cn3c(=O)sn(-c4ccc(C#N)cc4)c3=O)cc1)=C\CC[C@@]1(C)O[C@@H]21 | 2.42 µM | 2.03 µM | 1.22 µM | 9 µM | 3.49 µM | 1.07 µM | 1.14 µM | 1.33 µM | 1.45 µM | 1.16 µM | 0.916 µM | 0.935 µM | 0.353 µM | 2.52 µM | 0.961 µM | 0.468 µM | 0.545 µM | 0.581 µM | 0.722 µM | 0.437 µM |
| COc1cc([C@@H]2c3cc4c(cc3C(O[C@@H]3O[C@@H]5CO[C@@H](c6cccs6)OC5[C@H](O)[C@H]3O)C3COC(=O)[C@@H]32)OCO4)cc(OC)c1O (stereo not given in full) | 0.822 µM | 0.87 µM | 1.63 µM | 0.137 µM | 0.0527 µM | 1.14 µM | 0.711 µM | 0.491 µM | 1.1 µM | 0.911 µM | 0.0209 µM | 0.207 µM | 0.0603 µM | 0.0283 µM | 0.0104 µM | 0.179 µM | 0.0269 µM | 0.0659 µM | 0.0409 µM | 0.017 µM |
| CN(C)C(=S)/N=c1\ss/c(=N\C(=S)N(C)C)n1-c1ccc2c(c1)OCO2 | > 100 µM | > 100 µM | > 100 µM | > 100 µM | > 100 µM | > 100 µM | > 100 µM | > 100 µM | > 100 µM | > 100 µM |  |  |  |  |  |  |  |  |  |  |
| NC(N)=NC(N)=Nc1cc2ccccc2c2ccccc12 | 18.1 µM | 30.5 µM | 21.4 µM | 22.8 µM | 26.3 µM | 19.9 µM | 17.3 µM | 19.9 µM | 25.8 µM | 22 µM | 4.58 µM | 13.6 µM | 6.5 µM | 8.53 µM | 10.5 µM | 5.05 µM | 5.07 µM | 5.12 µM | 12.1 µM | 5.15 µM |
| Cc1[nH]c(N=Nc2ccccc2)nc1N=Nc1ccccc1 | 12 µM | 19.1 µM | > 56.7 µM | 17.1 µM | > 23.6 µM | 13 µM | 7.89 µM | 12.5 µM | 4.34 µM | 20.9 µM | 2.86 µM | 3.59 µM | 4.7 µM | 4.09 µM | 2.56 µM | 1.34 µM | 2.15 µM | 1.66 µM | 1.83 µM | 2.72 µM |
| Cc1ccc(NC(=O)C2C(=O)N(c3ccc(C)c(C)c3)C(=O)/C2=N/O)cc1C (stereo not given) | > 100 µM | > 100 µM | 37.2 µM | > 100 µM | > 100 µM | > 100 µM | > 100 µM | > 100 µM | > 100 µM | 38.3 µM |  |  |  |  |  |  |  |  |  |  |
| CC(C)CSc1nc(Nc2ccccc2)c(C#N)c(-c2ccc(F)cc2)n1 | 18.8 µM | 30.2 µM | > 100 µM | 12.9 µM | > 100 µM | 22.1 µM | 1.47 µM | 5.21 µM | 43.5 µM | 21.4 µM | 1.71 µM | 13.7 µM | 8.63 µM | 2.1 µM | > 100 µM | 2.04 µM | 0.403 µM | 1.24 µM | 16.5 µM | 2.98 µM |
| COc1cc(Cn2c(-c3ccccc3)cc3c2-c2oncc2CC3)cc(OC)c1OC | > 100 µM | > 100 µM | > 100 µM | > 100 µM | 1.36 µM | > 100 µM | > 100 µM | 3.99 µM | 77.5 µM | > 100 µM | 1.15 µM | 18.6 µM | 0.42 µM | 2.37 µM | 0.32 µM | 3.23 µM | 0.961 µM | 0.453 µM | 0.449 µM | 0.831 µM |
| CNC=O.[O]=[Ge].[O]=[Ge].[O]=[Ge].[O]=[Ge][OH].[O]=[Ge][OH] | > 100 µM | > 100 µM | > 100 µM | > 100 µM | > 100 µM | > 100 µM | > 100 µM | > 100 µM | > 100 µM | > 100 µM |  |  |  |  |  |  |  |  |  |  |

— PubChem BioAssay (NCI)
